The values that follow come from patent US11622975B2, “Compositions and methods for improved honey bee health” (priority 2019, dated 2023).

SMILES strings stand for the structures.

In one series the test system is honey bee colonies. Put plainly: Overwintering field trial of honey bee colonies treated with HPBCD and acaricide. The format is in vivo. The following applies: for colony (hive) loss: fed October to December, surviving hives counted in March, 10 colonies per treatment, no treatment about 50%; for total frames containing bees: measured in March after overwintering, no treatment 50 frames. As to the method: This example illustrates the use of HPBCD in a field setting. Four treatments with 10 colonies per treatment were performed as follows: (i) No HPBCD and no acaricide (No Treatment control), (ii) acaricide alone (Amitraz), (iii) HPBCD, and (iv) a combination of Amitraz and HPBCD. Colonies were fed treatments using a top box feeder in a “Langstroth Hive” from October to December, then surviving hives were counted in March of the following year and numbers of Langstroth frames containing bees were measured. About 50% of the colonies that received no treatment were lost; while it is a high level of loss it was within the expected range for hives that received no extra management besides sugar syrup supplementation (which agrees with the national average for untreated colonies). The group receiving only Amitraz, the current industry standard for mite control, lost about 20% of the colonies. HPBCD on its own was able to reduce hive loss to about 30%. […] Not intending to be bound by theory, one possible explanation for this profound effect is that Amitraz was lethal to mites based on contact (LC50), while the possible sub lethal and chronic affects for the honey bee were dosage based (LD50) as evidenced by slower behavioral response time (see e.g., De Mattos, 2017). It is likely the bees ingest the HPBCD and the Amitraz was sequestered rendering its effects on the bee diminished, while the groups that received no HPBCD were still susceptible to the effects of the acaricide.

Series [1] has as its system honey bees. Put plainly: MBCD and HPBCD alpha-tocopherol inclusion complex treatment of clothianidin-exposed bees, survival. In kind it is in vivo, Apis mellifera. The following applies: clothianidin treatment alone, n=280 bees/treatment. As to the method:
MBCD & HPBCD alpha-tocopherol inclusion complexes were formulated using 2.33 μL of +-(α)-tocopherol (1,000 I.U., available from MilliporeSigma, St. Louis, Mo.) added to 1 g of MBCD or HPBCD to arrive at a concentration of approximately 20 I.U. of tocopherol/bee/day and 10 μg (or other indicted dosage) of BCD/bee/day. The resulting powder can be stored at −20° C. or immediately dissolved into 4.166 L of water containing 50% sucrose. The resulting solution is stable and stored at 4° C. until further use. The comparative effects of MBCD versus HPBCD treated bees are shown for lab-controlled environment (n=280 bees/treatment).

The test system of another series is honey bee. The following applies: half of previously published honey bee LD50; used as dose in the cage study; cited from earlier work.
The test system of series [2] is Deformed wing virus (DWV). Briefly: Viral load (RT-qPCR) in virus-infected honey bees after MBCD treatment. The note with it: clothianidin treated bees compared to bees supplemented with 20 ppm MBCD. The format is in vivo, Apis mellifera. On the procedure:
The presence of DWV and Varroa destructor was determined as follows. Total RNA was extracted from whole body 12 individual honey bees using the TRIzol Reagent® (available from Thermo Fisher Scientific, Waltham, Mass.) by manufacturers specifications, and stored at −80° C. First-strand cDNA was synthesized using the Superscript III Reverse Transcriptase (available in a kit from Thermo Fisher Scientific). Briefly, each reaction contained: 3 μl total bee RNA (˜1 μg/μl), 1 μl of 10 mM dNTPs, 1 μl random primers (0.15 μg/μl), 1 μL of Oligo(dT), 1 μl of 0.1 M DTT (0.1 M), 4 μl 5×First-Strand Buffer, 1 uL of 200 U/μL RnaseOUT, 1 μl of 200 U/μl SuperScript III Reverse Transcriptase, and 7 μl Nuclease-free water. The reaction mixture was incubated at 25° C. for 5 min, 55° C. for 2 hrs, and 70° C. for 15 min, then stored at −20° C. until use. Transcript levels (RT-qPCR analysis) were quantified using the Brilliant III Ultra-Fast SYBR Green® QPCR Master Mix (Agilent Technologies, Inc., Santa Clara, Calif.) on a CFX384 Touch Real Time PCR Detection System (Bio-Rad Laboratories, Inc., Hercules, Calif.). Samples were incubated at 95° C. for 5 min, followed by 40 cycles of 95° C. for 20 s, 59° C. for 20 s, and 72° C. for 20 s. Thereafter, a melt curve analysis from 65° C. to 95° C. was performed to confirm product specificity. For the detection and quantification of negative stranded bee viruses, replication intermediates, TAG-DWV primers were substituted for random primers or oligos (see e.g., Boncristiani et al., 2009). The fold difference in viral concentration among different treatment groups was determined using the comparative Ct method (2^−ΔΔCT method) (see e.g., Livak & Schmittgen, 2001). Calibrators were chosen as the highest average treatment ΔCt value for each experiment.
Emerging bees that had non-deformed wings (i.e., asymptomatic) were selected for a cage study (n=30 bees per cage & 6 replicate cages per treatment). […] Virally infected untreated bees were compared to bees fed 10 μg/bee MBCD in 50% sucrose solution. In FIG. 6A, DWV (+) sense viral genome titers were compared 3 and 6 days after treatment. An unpaired, 2-tailed Student's T-Test was performed to determine statistical significance (p<0.05 at 3 days feeding; N.S.=Non-significant 6 days after treatment). In FIG. 6B, DWV (−) sense replicative strand titers were compared 3 and 6 days after treatment. An unpaired, 2-tailed Student's T-Test was performed to determine statistical significance (p<0.0001 for 3 days post treatments; p=0.049 for 6 days post treatment). The “★” denotes the sample chosen as the 2^−ΔΔCT calibrator and bars denote standard error.
(In general: Quantitative PCR measures a nucleic acid by following its amplification.)

Series [3] deals with honey bees. Put plainly: Cage survival study of bees fed sublethal doses of pesticides with or without MBCD. The format is in vivo, Apis mellifera. The following applies: bees fed pesticide alone at sublethal dose in 50% sucrose; control 36 days. On the procedure: This example illustrates the baseline effects of the inventive composition in the absence of an exogenous stressor. Samples of European honey bees, Apis mellifera, were collected from colonies maintained in the apiaries of the USDA-ARS Bee Research Laboratory in Beltsville, Md. Frames with emerging brood were removed from colonies and individually placed in a mesh-walled cage. The cages were transferred to an insect growth chamber at 34° C. and 70% humidity. After 24 hrs incubation, newly emerged honey bees were transferred to a honey bee rearing cup, with a top-feeder design, allowing for easy sampling of honey bees (see e.g., Evans et al., 2009). A 3 mL syringe filled with 50% sugar syrup mixture was inverted over the top of the rearing cup to provision the caged honey bees. The honey bees were also provisioned with 1.5 grams of honey bee pollen supplement in patty form (e.g., Bee-Pro®, available from Mann Lake Ltd, Hackensack, Minn.), supplemented 10% (w/w) with ground fresh pollen, and placed on cotton paper on the cup cage bottoms. Syringes and sucrose solution were changed every 3 days and cotton paper was changed once per week.
In this example, whether MBCD mitigates the toxicity of certain pesticides associated with honey bee death was investigated. Not intending to be theory-bound, it was hypothesized that the binding of hydrophobic pesticide molecules to CDs would translate into health benefits to honey bees that were exposed to such pesticides. Samples of honey bees were collected as in example 1. A cage study (n=30 bees per cage & 2 replicate cages per treatment) was performed using 50% sucrose solution that had been spiked with sublethal doses of common pesticides that are known to be toxic to honey bees to measure the ability of treatment MBCD compositions to confer protection to the honey bees. Analytical grade standards of clothianidin, imidacloprid, and chlorpyrifos (available from MilliporeSigma, St. Louis, Mo.) were first dissolved in acetone, then diluted to their final concentrations (Table 2) in 50% sugar syrup. The listed sublethal doses were derived from taking half of the previously published honey bee LD50s (referred to a “LD25” in Table 2). The solutions were administered via 3 mL syringes in rearing cups as previously stated. Fresh pesticide solutions were mixed every 3 days to coincide with syringe replacement (see e.g., Williamson et al., 2013; Li et al, 2017).
Median survival is represented for each treatment by (# days). Curves were compared using Log-Rank Mantel-Cox (p<0.0001 for clothianidin versus control, 1, or 10 μg MBCD; p<0.001 for chlorpyrifos versus control or 1 μg MBCD) and Gehan-Breslow-Wilcoxon (p<0.0001 for clothianidin versus control, 1, or 10 μg MBCD; p<0.05 for chlorpyrifos versus control or 1 μg MBCD). […] The chlorpyrifos treatment was able to reduce median lifespan on its own to 26 days compared to the 36 days of the control (FIG. 2C). While a dosage of 10 μg/bee MBCD did increase median lifespan to 30 days, there was not a significant change in median lifespan.

As to `Cc1ccc(/N=C/N(C)/C=N/c2ccc(C)cc2C)c(C)c1` [Amitraz, amitraz, reference compound], in the series with honey bee colonies, the “colony (hive) loss” value is “about 20%” and the “total frames containing bees” value was found to be 48.5 frames.
As for `CN/C(=N\[N+](=O)[O-])NCc1cnc(Cl)s1` [Clothianidin, clothianidin, reference compound], the median lifespan in the series with honey bees [1] is recorded as 22 days; with honey bees [3] it was 13.5 days. Moreover, in the series with honey bee, the “Sublethal LD25” value is listed as 1.0 ng/bee. The DWV levels entry in series [2] is recorded as “higher levels of DWV”.
Turning to `CC(O)COC[C@H]1O[C@@H]2O[C@H]3[C@H](O)[C@@H](O)[C@@H](O[C@H]4[C@H](O)[C@@H](O)[C@@H](O[C@H]5[C@H](O)[C@@H](O)[C@@H](O[C@H]6[C@H](O)[C@@H](O)[C@@H](O[C@H]7[C@H](O)[C@@H](O)[C@@H](O[C@H]8[C@H](O)[C@@H](O)[C@@H](O[C@H]1[C@H](O)[C@H]2O)O[C@@H]8COCC(C)O)O[C@@H]7COCC(C)O)O[C@@H]6COCC(C)O)O[C@@H]5COCC(C)O)O[C@@H]4COCC(C)O)O[C@@H]3COCC(C)O` (stereo partly drawn) [HPBCD, hydroxypropyl-β-cyclodextrin], in the series with honey bee colonies, the “colony (hive) loss” value is on record as “about 30%” and the “total frames containing bees” value came to 53.5 frames.
With `CCOP(=S)(OCC)Oc1nc(Cl)c(Cl)cc1Cl` [Chlorpyrifos, chlorpyrifos, reference compound], the “Sublethal LD25” value in the series with honey bee is on record as 0.43 ng/bee. The compound further displayed a median lifespan in the series on honey bees [3] of 26 days.
Turning to `O=[N+]([O-])NC1=NCCN1Cc1ccc(Cl)nc1` [Imidacloprid, imidacloprid, reference compound], the “Sublethal LD25” value in the series with honey bee is listed as 4.3 ng/bee. This compound also came in with a median lifespan in the series with honey bees [3] of 32 days.
